Results as given in US4321267A, “1-Substituted-4 (1H)-pyridinone hydrazones active against Giardia lamblia and Trichomonas vaginalis” (priority 1980, dated 1982).
In brackets after ≈: the same amount, converted by molar mass.

How the values were obtained:
Giardia lamblia [1] = test: In vitro anti-Giardia lamblia activity (multiwell culture, viable count by hemacytometer, 24 h); type: cell-based; conditions: Giardia duodenalis, 50% inhibition of growth, 37° C., about 16-24 hours, anaerobic, read-out: Anti-G. lamblia ED50
Method: (§1) About 1.0-2.0 ml of a nutrient medium, for example, the modified Diamond's (TPS) medium at pH 7.05, together with about 10% by volume of heat-inactivated serum and about 1% by volume of an antibiotic-antimycoticmixture, is placed in each well of a multi-well plate. To this mixture, an aliquot of a suspension of G. lamblia cells containing about 10^6 organism is added. Subsequently, each well is inoculated with a known concentration of one of the pyridinone hydrazones, for example, 1-[(4-chlorophenyl)-4(1H)-pyridinone]-2-[(4-chlorophenyl)methylene]-hydrazone. The multiwell plate containing the individual culture samples is incubated under anaerobic conditions at about 37° C. for about 16-24 hours. The number of viable cells remaining in each well are then counted, such as with a hemocytometer. The percentage of survival is determined by comparison to controls incubated with DMSO (dimethylsulfoxide) and the effective concentration (in parts per million) for 50% inhibition of growth (ED50) is determined. It is established that the lower the ED50 the higher the activity of the 1-substituted-4-(1H)-pyridinone hydrazone tested.
(§2) In each well of a multiwell plate is placed 1.4 ml of Diamond's TPS medium (See Table II) at pH 7.05, 10% by volume of heat-inactivated fetal bovine serium, and 1% by volume of an antibiotic-antimycotic solution (see Table III). A suspension of Giardia lamblia is centrifuged at 2,500 xg for 6 minutes. The pelleted cells are resuspended in a small volume of Diamond's medium, the cells are counted and each well inoculated with approximately 10^6 organisms. A stock solution of 1-[(4-chlorophenyl)-4(1H)-pyridinone]-2-[(4-methylthiophenyl)-methylene]hydrazone in dimethylsulfoxide is made at a concentration of 150 μg/ml. The wells are then inoculated with various concentrations of the drug. The plates are incubated for 24 hours at 37° C. in an anaerobic Gas Pak jar. After 24 hours of incubation, each well is mixed and counted for viable organisms using a hemacytometer. The percentage of survival is determined by comparing the treated wells to controls treated with dimethylsulfoxide.

Trichomonas vaginalis [2] = test: In vitro anti-Trichomonas vaginalis activity (method of Example 1); type: cell-based, T. vaginalis 30001; conditions: for IC50: Trichomonas vaginalis, 37° C., 24 hours, read-out: Anti-T. vaginalis ED50; for activity against T. vaginalis (in words): method of Example 1
Method: as §1, §2
Employing the method of Example 1, centrifuged cells of T. vaginalis 30001 are incubated with 1-[(4-chlorophenyl)-4(1H)-pyridinone]-2-[(4-methylthiophenyl)methylene]hydrazone at 37° C. for 24 hours.

Giardia lamblia [3] = conditions: humans; cited from earlier work
[4] = humans; cited from earlier work
[5] = in animals; cited from earlier work
Trichomonas vaginalis [6] = conditions: humans; cited from earlier work

Compound	IC50 (Giardia lamblia [1]) [µg/mL]	IC50 (Trichomonas vaginalis [2]) [µg/mL]	activity against T. vaginalis (in words) (Trichomonas vaginalis [2])	treatment of giardiasis infection (Giardia lamblia [3])	adverse side effects [4]	carcinogenicity [5]	therapy of trichomoniasis (Trichomonas vaginalis [6])
Clc1ccc(C=NN=c2ccn(-c3ccc(Cl)cc3)cc2)cc1 [(1), 1-[(4-chlorophenyl)-4(1H)-pyridinone]-2-[(4-chlorophenyl)methylene]hydrazone]	1.45 (≈ 4.24 µM)	2.63 (≈ 7.68 µM)	active against T. vaginalis	–	–	–	–
N#Cc1ccc(C=NN=c2ccn(-c3ccc(Cl)cc3)cc2)cc1 [(2), 1-[(4-chlorophenyl)-4(1H)-pyridinone]-2-[(4-cyanophenyl)methylene]hydrazone]	2.25 (≈ 6.76 µM)	3.3 (≈ 9.92 µM)	active against T. vaginalis	–	–	–	–
CSc1ccc(C=NN=c2ccn(-c3ccc(Cl)cc3)cc2)cc1 [(3), 1-[(4-chlorophenyl)-4(1H)-pyridinone]-2-[(4-methylthiophenyl)methylene]hydrazone]	1.1 (≈ 3.11 µM)	2.88 (≈ 8.14 µM)	effective anti-T. vaginalis agent	–	–	–	–
Clc1ccc(-n2ccc(=NN=Cc3ccc(Br)cc3)cc2)cc1 [(6), 1-[(4-chlorophenyl)-4(1H)-pyridinone]-2-[(4-bromophenyl)methylene]hydrazone]	1.25 (≈ 3.23 µM)	3.63 (≈ 9.39 µM)	–	–	–	–	–
Fc1ccc(C=NN=c2ccn(-c3ccc(Cl)cc3)cc2)cc1 [(8), 1-[(4-chlorophenyl)-4(1H)-pyridinone]-2-[(4-fluorophenyl)methylene]hydrazone]	2.25 (≈ 6.91 µM)	4 (≈ 12.3 µM)	–	–	–	–	–
CCN(CC)CCCC(C)Nc1c2ccc(Cl)cc2nc2ccc(OC)cc12 (stereo not drawn) [Atabrine]	–	–	–	successfully treated	–	–	–
O=C1OCCN1/N=C/c1ccc([N+](=O)[O-])o1 [furazolidone]	–	–	–	successfully treated	adverse side effects	–	–

Second part, led by results:

IC50 (Giardia lamblia [1]) [µg/mL]	IC50 (Trichomonas vaginalis [2]) [µg/mL]	Compound	activity against T. vaginalis (in words) (Trichomonas vaginalis [2])	treatment of giardiasis infection (Giardia lamblia [3])	adverse side effects [4]	carcinogenicity [5]	therapy of trichomoniasis (Trichomonas vaginalis [6])
1.5 (≈ 3.98 µM)	3 (≈ 7.96 µM)	Clc1ccc(-n2ccc(=NN=Cc3ccc(Cl)c(Cl)c3)cc2)cc1 [(4), 1-[(4-chlorophenyl)-4(1H)-pyridinone]-2-[(3,4-dichlorophenyl)methylene]hydrazone]	–	–	–	–	–
1.42 (≈ 3.78 µM)	3.25 (≈ 8.65 µM)	FC(F)(F)c1ccc(C=NN=c2ccn(-c3ccc(Cl)cc3)cc2)cc1 [(5), 1-[(4-chlorophenyl)-4(1H)-pyridinone]-2-[(4-trifluoromethylphenyl)methylene]hydrazone]	–	–	–	–	–
1.2 (≈ 3.19 µM)	1.75 (≈ 4.65 µM)	Clc1ccc(-n2ccc(=NN=Cc3ccc(Cl)cc3Cl)cc2)cc1 [(7)]	–	–	–	–	–
6.2 (≈ 36.2 µM)	< 1	Cc1ncc([N+](=O)[O-])n1CCO [metronidazole]	–	successfully treated	–	carcinogenic in animals	Successful therapy of trichomoniasis
